Reference: ChEMBL document CHEMBL1133460, “Synthesis and biological evaluation of certain alpha,beta-unsaturated ketones and their corresponding fused pyridines as antiviral and cytotoxic agents” (J Med Chem, 2000)
≈ marks a conversion by molar mass, not a printed value. Where “and” joins values, the source holds several entries; their conditions need not be identical. Equal values may be shown once. Calls of active or inactive are those of the source. No cut-off for these calls is given here.

Experiments:
[1] = test system: Human immunodeficiency virus 1; experiment: (§1) In vitro effective concentration against HIV-1 cytopathic effect in T4 cells; Inactive; assay type: functional, organism-based
[2] = test system: MT4; experiment: In vitro inhibitory activity against uninfected T4 cells; assay type: functional, cell-based; conditions: Homo sapiens
[3] = test system: Panel melanoma (Carcinoma cell lines); experiment: In vitro median growth inhibitory concentration against melanoma cell lines; assay type: functional; conditions: Homo sapiens
[4] = test system: NSCLC; experiment: In vitro median growth inhibitory concentration against non-small-cell lung cancer; assay type: functional; conditions: Homo sapiens
[5] = test system: Ovarian cancer cell line; experiment: In vitro median growth inhibitory concentration against ovarian cancer cell lines; assay type: functional; conditions: Homo sapiens
[6] = test system: Panel prostate (Carcinoma cell lines); experiment: In vitro median growth inhibitory concentration against prostate cancer cell lines; assay type: functional; conditions: Homo sapiens
[7] = test system: Panel renal (Carcinoma cell lines); experiment: In vitro median growth inhibitory concentration against renal cancer cell lines; assay type: functional; conditions: Homo sapiens
[8] = species: Homo sapiens; experiment: Selectivity ratio between the full panel MG-MID and leukemia subpanel MG-MID was determined.; assay type: functional
[9] = test system: Panel leukemia (Carcinoma cell lines); experiment: In vitro median growth inhibitory conc. against leukemia was estimated.; assay type: functional; conditions: Homo sapiens
[10] = test system: Panel CNS (Carcinoma cell lines); experiment: In vitro median growth inhibitory concentration against CNS cancer cell lines; assay type: functional; conditions: Homo sapiens
[11] = test system: Tumor cell line; experiment: (§2) In vitro median growth inhibitory concentration against breast cancer cell lines; assay type: functional; conditions: Homo sapiens
[12] = In vitro median growth inhibitory concentration against colon cancer cell lines; assay type: functional; conditions: Homo sapiens
[13] = Full panel mean-graph midpoint (MG-MID)
[14] = In vitro effective concentration against HIV-1 cytopathic effect in T4 cells; assay type: functional, cell-based; conditions: Homo sapiens
[15] = Therapeutic index (IC50/EC50) was determined; conditions: read-out: TI50
[16] = test system: Human alphaherpesvirus 1; experiment: concentration caused 50% loss of the monolayer present around the viral plaques in ug/mL.; assay type: functional, organism-based
[17] = test system: Human alphaherpesvirus 1; experiment: Minimum antiviral concentration proved to be lethal to viral population in uM; assay type: functional
[18] = test system: Human alphaherpesvirus 1; experiment: Minimum antiviral concentration proved to be lethal to viral population in ug/mL.; assay type: functional
[19] = test system: Human alphaherpesvirus 1; experiment: In vitro antiviral activity against Herpes Simplex-1 virus (HSV-1) expressed as percent reduction in the number of viral plaques; assay type: functional; design: concentration or dose not given beside the values
[20] = test system: Panel leukemia (Carcinoma cell lines); experiment: In vitro growth inhibitory concentration against leukemia tumor cell lines; assay type: functional; conditions: Homo sapiens
[21] = test system: Panel melanoma (Carcinoma cell lines); experiment: In vitro growth inhibitory concentration against melanoma cancer cell lines; assay type: functional; conditions: Homo sapiens
[22] = test system: NSCLC; experiment: In vitro growth inhibitory concentration against non-small-cell lung cancer; assay type: functional; conditions: Homo sapiens
[23] = test system: Panel prostate (Carcinoma cell lines); experiment: In vitro growth inhibitory concentration against prostate cancer cell lines; assay type: functional; conditions: Homo sapiens
[24] = test system: Panel renal (Carcinoma cell lines); experiment: In vitro growth inhibitory concentration against renal cancer cell lines; assay type: functional; conditions: Homo sapiens
[25] = test system: Breast cancer cell line; experiment: In vitro growth inhibitory concentration against breast cancer cell lines; assay type: functional; conditions: Homo sapiens
[26] = In vitro growth inhibitory concentration against colon cancer tumor cell lines; assay type: functional; conditions: Homo sapiens
[27] = test system: Breast cancer cell line; experiment: as §2; assay type: functional; conditions: Homo sapiens
[28] = test system: Human alphaherpesvirus 1; experiment: 50% loss of the monolayer present around the viral plaques in uM; assay type: functional, organism-based
[29] = test system: Ovarian cancer cell line; experiment: In vitro growth inhibitory concentration against ovarian cancer cell lines; assay type: functional; conditions: Homo sapiens
[30] = test system: Panel CNS (Carcinoma cell lines); experiment: In vitro growth inhibitory concentration against CNS cancer cell lines; assay type: functional; conditions: Homo sapiens
[31] = test system: Human alphaherpesvirus 1; experiment: Concentration which caused 50% loss of the monolayer present around the viral plaques in uM; assay type: functional, organism-based
[32] = test system: Human alphaherpesvirus 1; experiment: Concentration which caused 50% loss of the monolayer present around the viral plaques in ug/mL.; assay type: functional, organism-based
[33] = test system: T4; experiment: as §1; assay type: functional, cell-based; conditions: Homo sapiens
[34] = test system: Tumor cell line; experiment: In vitro for median growth inhibitory concentration against colon cancer cell lines; assay type: functional; conditions: Homo sapiens
[35] = test system: Tumor cell line; experiment: In vitro for median growth inhibitory concentration against melanoma cell lines; assay type: functional; conditions: Homo sapiens
[36] = test system: Tumor cell line; experiment: In vitro for growth inhibitory concentration against non small lung cancer cell lines; assay type: functional; conditions: Homo sapiens
[37] = test system: Tumor cell line; experiment: In vitro for median growth inhibitory concentration against CNS cancer cell lines; assay type: functional; conditions: Homo sapiens
[38] = test system: Tumor cell line; experiment: In vitro for median growth inhibitory concentration against breast cancer cell lines; assay type: functional; conditions: Homo sapiens
[39] = test system: Tumor cell line; experiment: In vitro for median growth inhibitory concentration against non small lung cancer cell lines; assay type: functional; conditions: Homo sapiens
[40] = test system: Tumor cell line; experiment: In vitro for median growth inhibitory concentration against ovarian cancer cell lines; assay type: functional; conditions: Homo sapiens
[41] = test system: Tumor cell line; experiment: In vitro for median growth inhibitory concentration against prostate cancer cell lines; assay type: functional; conditions: Homo sapiens
[42] = test system: Tumor cell line; experiment: In vitro for median growth inhibitory concentration against renal cancer cell lines; assay type: functional; conditions: Homo sapiens
[43] = test system: Tumor cell line; experiment: In vitro for median growth inhibitory concentration against leukemia; assay type: functional; conditions: Homo sapiens
[44] = test system: Tumor cell line; experiment: In vitro growth inhibitory concentration against non-small-cell lung cancer cell lines; assay type: functional; conditions: Homo sapiens

| Structure (SMILES) | EC50 [1] | IC50 [2] [µM] | GI50 [3] [µM] | GI50 [4] [µM] | GI50 [5] [µM] | GI50 [6] [µM] | GI50 [7] [µM] | Ratio [8] | GI50 [9] [µM] | GI50 [10] [µM] | GI50 [12] [µM] | MG-MID [13] | MAC [17] [µM] | MAC [18] [µg/mL] | Reduction [19] [%] | TGI [20] [µM] | TGI [21] [µM] | TGI [24] [µM] | TGI [25] [µM] | TGI [26] [µM] | further results |
| --- | --- | --- | --- | --- | --- | --- | --- | --- | --- | --- | --- | --- | --- | --- | --- | --- | --- | --- | --- | --- | --- |
| COc1ccc(/C=C2\CN(C)CC3C2=NN(c2ccccc2)C3c2ccc(OC)cc2)cc1 (centres undefined) | Not Active | > 200 | 77.7 | 82.1 | 80.7 | > 100 | 54.7 | 0.7 | > 100 | 63.1 | > 100 | 72.9 µM |  |  |  |  |  |  |  |  | GI50 [11]: 91.8 µM |
| CN1C/C(=C\c2ccncc2)C(=O)/C(=C/c2ccncc2)C1 |  | > 200 |  |  |  |  |  |  |  |  |  |  |  |  |  |  |  |  |  |  | EC50 [14]: 64.7 µM; selectivity ratio [15]: > 3.09 |
| CN1CC2=C(N=C(S)NC2c2cccs2)/C(=C/c2cccs2)C1 (centres undefined) | Not Active | 34 | 60.5 | 67.2 | 65.5 | > 100 | 75 | 2.4 | 22.4 | 76.1 | 70.5 | 53.5 µM and 95.8 µM | 0.29 | 0.1 | 27 | 69.8 | > 100 | > 100 | 98.1 | > 100 | IC50 [16]: 0.15 µg/mL (≈ 0.417 µM); TGI [22]: > 100 µM; TGI [23]: > 100 µM; GI50 [27]: 45.1 µM; IC50 [28]: 0.58 µM; TGI [29]: > 100 µM; TGI [30]: > 100 µM |
| CN1C/C(=C\c2cccs2)C(=O)/C(=C/c2cccs2)C1 |  | 15.2 |  |  |  |  |  |  |  |  |  |  | 3.3 | 0.1 | 33 | 51.6 | 84.1 | 70.4 | 75.4 | 72.2 | IC50 [31]: 0.66 µM; IC50 [32]: 0.2 µg/mL (≈ 0.663 µM); Inhibition [33]: inactive; GI50 [34]: 23.7 µM; GI50 [35]: 34.6 µM; TGI [36]: 90.1 µM; GI50 [37]: 36.6 µM; GI50 [38]: 28.7 µM; GI50 [39]: 36.5 µM; GI50 [40]: 23.5 µM; GI50 [41]: 23.9 µM; GI50 [42]: 24.2 µM; TGI [29]: 81.4 µM; TGI [30]: 82.7 µM; GI50 [43]: 10.6 µM |
| Cc1ccc(/C=C2\CN(C)CC3=C2N=C(S)NC3c2ccc(C)cc2)cc1 (centres undefined) | Not Active | 27.6 | 58.8 | 59.6 | 51.2 | 38.3 | 60.8 | 1.8 | 19.2 | 53.7 | 37.1 | 34.5 µM and 86.5 µM | 0.27 | 0.1 | 45 | 62.3 | > 100 | 96.9 | 88.8 | 83.6 | IC50 [16]: 0.07 µg/mL (≈ 0.186 µM); TGI [44]: 89.9 µM; TGI [23]: > 100 µM; GI50 [27]: 39.4 µM; IC50 [28]: 0.19 µM; TGI [29]: 94 µM; TGI [30]: 94.1 µM |
